Calls of active or inactive are those of the source. The calls are words filed in the database; no cut-off is given here.
How the values were obtained:
[1] = Toxicity in female BALB/c nude mouse xenografted with human NCI-H441 cells harboring wildtype KRAS/KRAS G12V mutant assessed as effect on body weight at 25 mg/kg, po administered once daily for 28 days; assay type: organism-based; conditions: in vivo, 672 h, time 28 day
[2] = Clearance in male Beagle dog at 1 mg/kg, iv measured after 24 hrs by LC-MS/MS analysis; assay type: ADME, organism-based, Canis lupus familiaris; conditions: in vivo
HPAF-II = test: Antitumor activity against human HPAF-II cells harboring wildtype KRAS/KRAS G12D mutant xenografted in female BALB/c mouse model assessed as reduction in tumor volume administered orally as once daily dose for 28 days; assay type: functional, cell-based; conditions: dose 3-25 mg/kg, route po, time 28.0 day
NCI-H441 = test: Inhibition of ERK1/2 phosphorylation in human NCI-H441 cells harboring KRAS G12V mutant incubated for 4 hrs by AlphaLISA assay; assay type: cell-based
A-375 = test: Cytotoxicity against human A-375 cells assessed as reduction in cell viability incubated for 120 hrs by CellTiter-Glo luminescence assay; assay type: functional, cell-based; conditions: A-375, 120 h

## CCn1c(-c2cc(N3CCN(C)CC3)cnc2[C@H](C)OC)c2c3cc(ccc31)-c1csc(n1)C[C@H](NC(=O)[C@H]1C[C@@H]1C)C(=O)N1CCC[C@H](N1)C(=O)OCC(C)(C)C2
[1]
  Activity: Non-toxic
[2]
  clearance: 6.67 mL/min/kg
HPAF-II
  Activity: Dose-dependent-effect
NCI-H441
  inhibition: Active
A-375
  EC50: 7.21 µM

— ChEMBL document CHEMBL6115029, “Discovery of Daraxonrasib (RMC-6236), a Potent and Orally Bioavailable RAS(ON) Multi-selective, Noncovalent Tri-complex Inhibitor for the Treatment of Patients with Multiple RAS-Addicted Cancers” (J Med Chem, 2025)
